For data set [1] the following is noted: sodium salt of stereoisomer, 5% sucrose solution as control, optical purity 99% or more, cited from earlier work.
For data set [2] the following is noted: cited from earlier work; for intensity of sweet taste: Nakamura et al., hydrochloride salts.
Data set [3] can be described thus: Hygroscopic property test (25° C., humidity 95%). Type of data set: physicochemical. As to conditions: for water absorption: high humidity condition; for Increase percentage (absorbed water amount) / Weight: 25° C., humidity 95%; for absorbed water: after 24 hours, 95% high humidity condition. The procedure: The crystals of free (2R,4R)-monatin (sample 1) prepared in Comparative Example 1, crystal of the potassium salt of (2R,4R)-monatin monohydrate (sample 2), and an amorphous solid of the potassium salt of (2R,4R)-monatin (sample 3) separately prepared were weighed out in an amount of 0.5 g, respectively, each was placed in a petri dish, and stored (retained) under a high humidity condition of 95% and a temperature of 25° C. After retention times of 1, 3, 6 and 24 hours, the weight of each sample was measured. The measuring conditions were as follows.
Apparatus name: HIFLEX TH401 supplied from ETAC.
Storing condition: 25° C., humidity of 95%.
Sample container: diameter of 25 cm, glass petri dish.

A short description of data set [4]: Sweetness intensity of crystals of free (2R,4R)-monatin compared with an aqueous solution of 5% sucrose. The procedure:
It was identified that the sweetness intensity (degree of sweetness) of the present crystals of free (2R,4R)-monatin is about 2500 times that of an aqueous solution of 5% sucrose. This sweetness intensity is nearly equivalent to the sweetness intensity (about 2700 times) of the crystals of the sodium salt of (2R,4R)-monatin evaluated by the inventors in Amino, Y. et al., WO 2003045914 A1.
1.05 mg of crystals of free (2R,4R)-monatin described in the above Comparative Example 1 were dissolved in 20 ml of ion-exchanged water. A solution was prepared by diluting this solution 2.5 times. The sweetness of this aqueous solution of the free compound of (2R,4R)-monatin was compared with that of an aqueous solution of 5% sucrose separately prepared.

Where two headings read alike, the source gives them in different places.

`N[C@H](C[C@](O)(Cc1c[nH]c2ccccc12)C(=O)O)C(=O)O` [(2R,4R)-monatin substance, (2R,4R)-monatin]: the degree of sweetness was 2700 times in data set [1], 2700 times in data set [1] (listed as (2R,4R)) and “about 2700 times” in data set [1] (listed as crystals of the sodium salt of (2R,4R)-monatin).

Turning to `N[C@H](C[C@@](O)(Cc1c[nH]c2ccccc12)C(=O)O)C(=O)O` [(2R,4S)-monatin substance, (2R,4S)-monatin], the degree of sweetness in data set [1] is given as 1300 times.

In the case of `N[C@@H](C[C@](O)(Cc1c[nH]c2ccccc12)C(=O)O)C(=O)O` [(2S,4R)-monatin substance, (2S,4R)-monatin], the degree of sweetness in data set [1] is on record as 300 times.

With `NC(CC(O)(Cc1c[nH]c2ccccc12)C(=O)O)C(=O)O` [(2S,4S)-monatin substance, (2S,4S)-monatin], the degree of sweetness in data set [1] was 50 times.

Consider `N[C@@H](C[C@@](O)(Cc1c[nH]c2ccccc12)C(=O)O)C(=O)O` [(2S,4S)-monatin, (2S,4S)-2-amino-4-carboxy-4-hydroxy-5-(3-indolyl)-pentanoic acid], for which the sweetness intensity in data set [2] (times that of sucrose, Vleggaar et al.) is listed as 800 to 1400 times.

As for `N[C@H](CC(O)(Cc1c[nH]c2ccccc12)C(=O)O)C(=O)O` (stereo partly drawn) [Sample 1, (2R,4R)-monatin], the water absorption entry in data set [3] (listed as crystal of free (2R,4R)-monatin) is “scarcely absorbs water”; in data set [3] (listed as crystals of free (2R,4R)-monatin) it was “no water absorption”. Also, the “Increase percentage (absorbed water amount)” value (“Increase percentage” for short) in data set [3] (retention time 0 hrs), in data set [3] (retention time 1 hr), in data set [3] (retention time 3 hrs), in data set [3] (retention time 6 hrs) and in data set [3] (retention time 24 hrs) was 0.00% in each case. For the same compound, the Weight in data set [3] (retention time 0 hrs) was 0.5000 g; in data set [3] (retention time 1 hr), 0.5000 g; in data set [3] (retention time 3 hrs), 0.4996 g; in data set [3] (retention time 6 hrs), 0.5001 g; in data set [3] (retention time 24 hrs) it was 0.4997 g. Also, the “sweetness compared with aqueous solution of 5% sucrose” value in data set [4] (1.05 mg in 20 ml ion-exchanged water, diluted 2.5 times) was “nearly equivalent sweetness intensity”. Besides, the “sweetness intensity (degree of sweetness)” value in data set [4] (relative to an aqueous solution of 5% sucrose) is on record as “about 2500 times”.

As to `N[C@@H](C[C@](O)(Cc1c[nH]c2ccccc12)C(=O)O)C(=O)O` [synthetic (2S,4R)-monatin, (2S,4R)-monatin], the “intensity of sweet taste” value in data set [2] is “slightly sweet taste”; in data set [2] (listed as hydrochloride salt of (2S,4R)-monatin) it was “almost no sweetness”.

With `NC(CC(O)(Cc1c[nH]c2ccccc12)C(=O)O)C(=O)O` [synthetic (2S,4S)-monatin, (2S,4S)-monatin], the “intensity of sweet taste” value in data set [2] is on record as “equivalent to that of the natural specimen of monatin”.

In data set [3], “potassium salt of (2R,4R)-monatin [Sample 3]” registered an absorbed water of 7.3 wt. %. Moreover, the “Increase percentage” value in data set [3] (retention time 0 hrs) turned out to be 0.00%; in data set [3] (retention time 1 hr), 8.82%; in data set [3] (retention time 3 hrs), 8.58%; in data set [3] (retention time 6 hrs) it was 7.30%; in data set [3] (retention time 24 hrs), 7.30%. Moreover, the Weight in data set [3] (retention time 0 hrs) was determined as 0.5014 g; in data set [3] (retention time 1 hr), 0.5456 g; in data set [3] (retention time 3 hrs), 0.5444 g; in data set [3] (retention time 6 hrs) it was 0.5383 g; in data set [3] (retention time 24 hrs) it was 0.5380 g.

In data set [3], “potassium salt of (2R,4R)-monatin monohydrate [Sample 2]” displayed an absorbed water of 5.4 wt. %. For the same compound, the “Increase percentage” value is on record as 0.00% in data set [3] (retention time 0 hrs); 1.08% in data set [3] (retention time 1 hr); 3.71% in data set [3] (retention time 3 hrs); 4.89% in data set [3] (retention time 6 hrs); 5.39% in data set [3] (retention time 24 hrs). The Weight was 0.5007 g in data set [3] (retention time 0 hrs); 0.5061 g in data set [3] (retention time 1 hr); 0.5193 g in data set [3] (retention time 3 hrs); 0.5252 g in data set [3] (retention time 6 hrs); 0.5277 g in data set [3] (retention time 24 hrs).
